The results in this text go back to US20230391763A1, “MODULATORS OF THE INTEGRATED STRESS RESPONSE PATHWAY” (Evotec International GmbH, priority 2020, published 2023).

The structures appear in SMILES notation. pIC50: −log10 of the molar value.

The subject of the experiment is Tunicamycin induced ISR (ATF4 signal ratio between nucleus and cytoplasm) in wild-type HEK293 cells. Briefly: HEK-ATF4 High Content Imaging assay. Type of experiment: cell-based. The conditions noted are these: Homo sapiens, prevention of Tunicamycin induced ISR, 6 h incubation, ATF4 immunofluorescence nucleus/cytoplasm ratio. The protocol: HEK-ATF4 High Content Imaging Assay
Example compounds were tested in the HEK-ATF4 High Content Imaging assay to assess their pharmacological potency to prevent Tunicamycin induced ISR. Wild-type HEK293 cells were plated in 384-well imaging assay plates at a density of 12,000 cells per well in growth medium (containing DMEM/F12, 10% FBS, 2 mM L-Glutamine, 100 U/mL Penicillin—100 μg/mL Streptomycin) and incubated at 37° C., 5% CO2. 24 h later, the medium was changed to 50 μL assay medium per well (DMEM/F12, 0.3% FBS, 2 mM L-Glutamine, 100 U/mL Penicillin—100 μg/mL Streptomycin). Example compounds were serially diluted in DMSO, spotted into intermediate plates and prediluted with assay medium containing 3.3 μM Tunicamycin to give an 11-fold excess of final assay concentration. In addition to the example compound testing area, the plates also contained multiples of control wells for assay normalization purposes, wells containing Tunicamycin but no example compounds (High control), as well as wells containing neither example compound nor Tunicamycin (Low control). The assay was started by transferring 5 μL from the intermediate plate into the assay plates, followed by incubation for 6 h at 37° C., 5% CO2. Subsequently, cells were fixed (4% PFA in PBS, 20 min at r.t.) and submitted to indirect ATF4 immunofluorescence staining (primary antibody rabbit anti ATF4, clone D4B8, Cell Signaling Technologies; secondary antibody Alexa Fluor 488 goat anti-rabbit IgG (H+L), Thermofisher Scientific). Nuclei were stained using Hoechst dye (Thermofisher Scientific), and plates were imaged on an Opera Phenix High Content imaging platform equipped with 405 nm and 488 nm excitation. Finally, images were analyzed using script based algorithms. The main readout HEK-ATF4 monitored the ATF4 signal ratio between nucleus and cytoplasm. Tunicamycin induced an increase in the overall ATF4 ratio signal, which was prevented by ISR modulating example compounds. In addition, HEK-CellCount readout was derived from counting the number of stained nuclei corresponding to healthy cells. This readout served as an internal toxicity control.

One may read the pIC50 as the IC50 on a negative log10 scale, so that one unit is a factor of ten.

`O=C(N[C@H]1CC[C@H](c2nnc(OCCOC(F)(F)F)o2)NC1)c1cn2cc(Cl)cc2cn1` [Example 15, 7-chloro-N-[(3S,6R)-6-{5-[2-(trifluoromethoxy)ethoxy]-1,3,4-oxadiazol-2-yl}piperidin-3-yl]pyrrolo[1,2-a]pyrazine-3-carboxamide]: the pIC50 is 4.82 to 5.70.
The value for `Cn1c(C(=O)N[C@H]2CC[C@H](c3nnc(OCCOC(F)(F)F)o3)NC2)cc2cc(C(F)(F)F)ccc21` [Example 22, 1-methyl-N-[(3S,6R)-6-{5-[2-(trifluoromethoxy)ethoxy]-1,3,4-oxadiazol-2-yl}piperidin-3-yl]-5-(trifluoromethyl)-1H-indole-2-carboxamide] was 5.70 to 6.30; that for `O=C(N[C@H]1CC[C@H](c2nnc(OCCOC(F)(F)F)o2)NC1)c1ccc(C(F)(F)F)c(F)c1` [Example 33, 3-fluoro-N-[(3S,6R)-6-{5-[2-(trifluoromethoxy)ethoxy]-1,3,4-oxadiazol-2-yl}piperidin-3-yl]-4-(trifluoromethyl)benzamide] was 5.70 to 6.30; that for `O=C(N[C@H]1CC[C@H](c2nnc([C@H]3C[C@@H](OC(F)(F)F)C3)o2)NC1)c1cnc2cc(Cl)ccc2c1` [Example 51, 7-chloro-N-[(3S,6R)-6-{5-[(1s,3s)-3-(trifluoromethoxy)cyclobutyl]-1,3,4-oxadiazol-2-yl}piperidin-3-yl]quinoline-3-carboxamide] was 6.30 to 9.00.
Consider `O=C(N[C@H]1CC[C@H](c2nnc(OCCOC(F)(F)F)o2)NC1)c1ccc2nc(C(F)(F)F)ccc2c1` [Example 14, N-[(3S,6R)-6-{5-[2-(trifluoromethoxy)ethoxy]-1,3,4-oxadiazol-2-yl}piperidin-3-yl]-2-(trifluoromethyl)quinoline-6-carboxamide], for which the pIC50 is 4.82 to 5.70.
With `O=C(N[C@H]1CC[C@H](c2nnc(OCCOC(F)(F)F)o2)NC1)c1cnc2ccc(Cl)cc2c1` [Example 8, 6-chloro-N-[(3S,6R)-6-{5-[2-(trifluoromethoxy)ethoxy]-1,3,4-oxadiazol-2-yl}piperidin-3-yl]quinoline-3-carboxamide], the negative-log IC50 (pIC50) was 6.30 to 9.00.
In the case of `O=C(N[C@@H]1CC[C@@H](c2nnc(OCCOC(F)(F)F)o2)NC1)c1ccc(Cl)c(Cl)c1` [Example 54, 3,4-dichloro-N-[(3R,6S)-6-[5-[2-(trifluoromethoxy)ethoxy]-1,3,4-oxadiazol-2-yl]-3-piperidyl]benzamide], the pIC50 is 5.70 to 6.30.
Take `Cn1c(C(=O)N[C@H]2CC[C@H](c3nnc(OCCOC(F)(F)F)o3)NC2)cc2ccc(C(F)(F)F)cc21` [Example 42, 1-methyl-N-[(3S,6R)-6-[5-[2-(trifluoromethoxy)ethoxy]-1,3,4-oxadiazol-2-yl]-3-piperidyl]-6-(trifluoromethyl)indole-2-carboxamide]: the negative-log IC50 (pIC50) was 5.70 to 6.30.
As for `O=C(N[C@H]1CC[C@H](c2nnc(OCCOC(F)(F)F)o2)NC1)c1ncc2cc(Cl)ccc2n1` [Example 6, 6-chloro-N-[(3S,6R)-6-{5-[2-(trifluoromethoxy)ethoxy]-1,3,4-oxadiazol-2-yl}piperidin-3-yl]quinazoline-2-carboxamide], the negative-log IC50 (pIC50) is 6.30 to 9.00.
To `O=C(N[C@H]1CC[C@H](c2nnc(OCCOC(F)(F)F)o2)NC1)c1ccc(Cl)c(C(F)(F)F)c1` [Example 37, 4-chloro-N-[(3S,6R)-6-{5-[2-(trifluoromethoxy)ethoxy]-1,3,4-oxadiazol-2-yl}piperidin-3-yl]-3-(trifluoromethyl)benzamide] belongs 4.82 to 5.70; to `O=C(N[C@H]1CC[C@H](c2nnc(OC/C=C/C(F)(F)F)o2)NC1)c1cnc2cc(Cl)ccc2c1` [Example 48, 7-chloro-N-[(3S,6R)-6-[5-[(E)-4,4,4-trifluorobut-2-enoxy]-1,3,4-oxadiazol-2-yl]-3-piperidyl]quinoline-3-carboxamide], 6.30 to 9.00; to `O=C(N[C@H]1CC[C@H](c2nnc(OCCOC(F)(F)F)o2)NC1)c1ccc(C(F)(F)F)c(Cl)c1` [Example 36, 3-chloro-N-[(3S,6R)-6-{5-[2-(trifluoromethoxy)ethoxy]-1,3,4-oxadiazol-2-yl}piperidin-3-yl]-4-(trifluoromethyl)benzamide], 4.82 to 5.70.
The value for `O=C(N[C@H]1CC[C@H](c2nnc(OCCOC(F)(F)F)o2)NC1)c1ccc2cc(C(F)(F)F)ccc2n1` [Example 2, N-[(3S,6R)-6-{5-[2-(trifluoromethoxy)ethoxy]-1,3,4-oxadiazol-2-yl}piperidin-3-yl]-6-(trifluoromethyl)quinoline-2-carboxamide] was 6.30 to 9.00.
The value for `O=C(N[C@H]1CC[C@H](c2nnc(OCCOC(F)(F)F)o2)NC1)c1ccc2c(c1)OC(F)(F)O2` [Example 30, 2,2-difluoro-N-[(3S,6R)-6-{5-[2-(trifluoromethoxy)ethoxy]-1,3,4-oxadiazol-2-yl}piperidin-3-yl]-2H-1,3-benzodioxole-5-carboxamide] was 5.70 to 6.30; that for `O=C(N[C@H]1CC[C@H](c2nnc(OCCOC(F)(F)F)o2)NC1)c1cccc(Cl)c1` [Example 23, 3-chloro-N-[(3S,6R)-6-{5-[2-(trifluoromethoxy)ethoxy]-1,3,4-oxadiazol-2-yl}piperidin-3-yl]benzamide] was 4.82 to 5.70; that for `O=C(N[C@H]1CC[C@H](c2nnc(OCCOC(F)(F)F)o2)NC1)c1ccc(OC(F)(F)F)c(Cl)c1` [Example 34, 3-chloro-4-(trifluoromethoxy)-N-[(3S,6R)-6-{5-[2-(trifluoromethoxy)ethoxy]-1,3,4-oxadiazol-2-yl}piperidin-3-yl]benzamide] was 5.70 to 6.30.
For the molecule `Cc1cc(C(=O)N[C@H]2CC[C@H](c3nnc(OCCOC(F)(F)F)o3)NC2)ccc1Cl` [Example 31, 4-chloro-3-methyl-N-[(3S,6R)-6-{5-[2-(trifluoromethoxy)ethoxy]-1,3,4-oxadiazol-2-yl}piperidin-3-yl]benzamide], the pIC50 was 4.82 to 5.70.
For the molecule `O=C(N[C@H]1CC[C@H](c2nnc(-c3ccc(Cl)cc3)o2)NC1)c1cnc2cc(Cl)ccc2c1` [Example 46, 7-chloro-N-[(3S,6R)-6-[5-(4-chlorophenyl)-1,3,4-oxadiazol-2-yl]-3-piperidyl]quinoline-3-carboxamide], the negative logarithm of the IC50 (pIC50) is 6.30 to 9.00.
The value for `O=C(N[C@H]1CC[C@H](c2nnc(OCCOC(F)(F)F)o2)NC1)c1cnc2c(F)c(Cl)ccc2c1` [Example 19, 7-chloro-8-fluoro-N-[(3S,6R)-6-{5-[2-(trifluoromethoxy)ethoxy]-1,3,4-oxadiazol-2-yl}piperidin-3-yl]quinoline-3-carboxamide] was 6.30 to 9.00.
